Assay results published in US20060148104A1, “Detection of ion channel or receptor activity” (Massachusetts Institute of Technology, priority 2004, published 2006).
Entries after “also recorded” stand apart in the source; their conditions may differ. Ends that are not written are not given here.

Legend:
TRPV3-EGFP = experiment: whole-cell patch clamp recordings, HEK293T cells transiently transfected with TRPV3-EGFP; type: cell-based, Mouse; conditions: 100 μM 2APB
Description: (§1) Cloning of TRPV3, TRPV1 and P2X2 into the EGFP-cc and EGFP-barstar vectors. The multiple cloning site (MCS) 3′ of the EGFP-C1 vector is not affected by the heptad repeat or barstar insertion described above, i.e., the restriction sites at the 3 prime end of EGFP are identical to the original EGFP-C1 clone. This MCS was used to clone each of three different ion channel subunits in-frame with the EGFP-heptad repeat module or EGFP-barstar module that had been inserted into the EGFP-C1 vector. Mouse TRPV3 cDNA was amplified either from total mouse cDNA or from plasmids containing the appropriate subunit sequence by PCR using the following primers: […]
(§2) Transient transfection of COS and HEK cells. COS or HEK cells were transfected using Lipofectamine 2000 (Invitrogen) according to the manufacture's protocol. In brief, 2 μg of the respective DNA plasmid were incubated for 30 min with 6 μl of Lipofectamine in 200 μl of Optimem medium (Gibco) at room temperature. Cells were incubated with the DNA-Lipofectamine complex for 3 h at 37 degrees Celsius in 500 μl Optimem medium. Afterwards the medium was replaced with DMEM containing 10% FCS. Cells were assayed for expression and activity of the engineered ion channels 24-48 h after transfection.
(§3) Characterization of functional activity of engineered ion channel subunits. […]

TRPV3-EGFP-cc [1] = experiment: whole-cell patch clamp recordings, HEK293T cells transiently transfected with TRPV3-EGFP-cc; type: cell-based, Mouse; conditions: 100 μM 2APB
Description: as §1, §2, §3

COS cells = experiment: FRET-based calcium sensing inside living COS cells (quantum dots + Calcium Crimson); type: cell-based; conditions: 405 nm laser; COS cells with internalized quantum dots and Calcium Crimson
Protocol: Quantum dot nanoparticles with an absorption peak at ˜405 nm and an emission peak at ˜580 nm (“Birch Yellow, Type 2”, Evident Corp.) were internalized by COS cells that had been previously loaded with a calcium-sensitive dye with absorption ˜580 nm, emission ˜620 nm (Calcium Crimson; Invitrogen N. C-3018). Dye loading was performed according to the directions of the manufacturer, and electroporation was used to enhance nanoparticle uptake. Live cells were illuminated with a 405 nm laser and emission from the sample was collected through a narrow bandgap filter centered around 620 nm. […] Since the calcium-sensitive dye cannot be excited by the 405 nm laser, their activation is due to FRET from the nanoparticles. The image is a snapshot from a movie taken at mid-plane section of a cell via confocal microscopy.

[2] = biological target: complementary peptides EIAALEK-EIAALEK-EIAALEK / KIAALKE-KIAALKE-KIAALKE; conditions: heterodimer (78); read-out: dissociation constant; cited from earlier work
EGFP-cc = experiment: pull-down of EGFP-cc from cell lysate by functionalized nanoparticles, Western blot; type: binding; conditions: for pull-down / binding of EGFP-cc: lysate of cells expressing EGFP-cc, anti-EGFP Western blot
Description: Nanoparticle synthesis and conjugation. Dye-doped silica nanoparticles containing the fluorescent dye tris (2,2′-bipyridine) dichlororuthenium (II) hexahydrate) (Ru(bpy)) were synthesized following the reverse microemulsion procedure described by Tan and coworkers (35). These particles are approximately 40 nm in diameter and can be dispersed in de-ionized water. To impart biocompatibility (stability in PBS and other physiological buffers), particles were coated with bovine serum albumin (BSA) by mixing the nanoparticles in aqueous solution with an equal volume of freshly prepared BSA solution (1% weight in water). The mixture was incubated at room temperature for 1 h, after which it was brought to a standard PBS concentration by addition of an appropriate amount of concentrated PBS solution (10× PBS) and left standing overnight at room temperature. Excess BSA was then removed by repeated cycles of centrifugation (12 min at 9,500 rpm), removal of the supernatant and resuspension in PBS (a step involving bath sonication for a few minutes).
Conjugation of the nanoparticles to the recognition domain peptide CGG-(KVSALKE)3, (SEQ ID NO: 44) which contains a three amino acid spacer (CGG) followed by three copies of the KVSALKE (SEQ ID NO: 1) heptad sequence (cc, custom synthesized by the MIT biopolymer lab) was achieved using commercial crosslinking chemistry. Amine groups on the surface of BSA-coated nanoparticles (there are 35 lysine groups accessible at the surface of each BSA molecule) were activated by transferring the nanoparticles to a solution of 10 μM or 100 μM freshly prepared MBS (an amine-to-thiol crosslinker, available from Pierce Biotechnology) in PBS. After 20 min incubation, nanoparticles were washed by centrifugation and resuspension in a conjugation buffer (PBS at pH 7 and 1 mM EDTA). Since the recognition peptide contains a cysteine (chosen for conjugation), reduction of possible disulfide bonds was performed (using TCEP reducing gel, Pierce Biotechnology) before addition to the activated nanoparticles. Conjugation was completed by adding the reduced peptide at a concentration of 10 μM or 100 μM to nanoparticles activated with MBS at the same respective concentrations. After peptide addition, nanoparticles were incubated overnight in a gently rotating tube at 4° C., after which they were washed 3 times in PBS.
HEK 293T cells were transiently transfected with a construct encoding either EGFP or the EGFP-cc construct containing (EVSALEK)4 (SEQ ID NO: 4) fused to the N-terminus of EGFP as described in Example 6. 2×10^6 cells were lysed in 200 μl Lysis buffer (PBS, pH7.4 with 1% Triton-X100) and afterwards diluted with 800 μl PBS to obtain 1 ml of cell lysate with 0.2% Triton-X100. Pull-down experiments were performed by incubating 100 μL of nanoparticles with 900 μL of cell lysate for one hour at 4° C. (with gentle rotation). Particles were then centrifuged (12 min at 9,500 rpm) and the supernatant removed. After brief washing of the pellet with 100 μL of PBS, particles were resuspended by sonication in 50 μL of PBS and the resulting solution analyzed by Western blot using antibodies to EGFP (Covance) according to standard methods.

TRPV3-EGFP-cc [3] = experiment: pull-down of engineered ion channel subunit TRPV3-EGFP-cc from cell lysate by functionalized nanoparticles, Western blot; type: binding, Mouse
Protocol: Nanoparticle synthesis and conjugation. These were performed as described in the previous example.
Pull-down experiments. These were performed essentially as described in the previous example except that (i) two different ratios of peptides/nanoparticle (10 μM or 100 μM peptide) were used to test their effect on binding ability; and (ii) lysates were made from cells that expressed engineered ion channel subunits TRPV3-EGFP-cc and TRPV3-EGFP, which are described in Example 6.

Compound: NCCOB(c1ccccc1)c1ccccc1 [2APB]
- reversibility of the 2APB effect (TRPV3-EGFP): quickly washed out
- response of cells to application of 2APB (whole-cell current) (TRPV3-EGFP; voltage ramp −100 mV to +100 mV, compared with TRPV3-cc): responded similarly
- reversibility of the 2APB effect (TRPV3-EGFP-cc [1]): quickly washed out
- response of cells to application of 2APB (whole-cell current) (TRPV3-EGFP-cc [1]; voltage ramp −100 mV to +100 mV, compared with TRPV3-EGFP): responded similarly

Compound: C/C=C(/C)C(=O)O[C@H]1C(C)=C2[C@H]([C@@H]1OC(=O)CCCCCCC)[C@@](C)(OC(C)=O)C[C@H](OC(=O)CCC)[C@@]1(O)[C@H]2OC(=O)[C@@]1(C)O [thapsigargin]
- emission at 620 nm upon addition of compound (calcium signal by FRET) (COS cells): flashes of light (orange dots) were detected only in the immediate vicinity of the nanoparticles

Compound: EIAALEK-EIAALEK-EIAALEK (SEQ ID NO: 5) and KIAALKE-KIAALKE-KIAALKE (SEQ ID NO: 6) (chain 1 EIAALEKEIAALEKEIAALEK; chain 2 KIAALKEKIAALKEKIAALKE; Complementary peptides) [IAAL-E3/K3 coiled-coil]
- Kd [2]: 70 nM

Compound: NP-cc: BSA-coated Ru(bpy) dye-doped silica nanoparticles (~40 nm) conjugated to recognition peptide CGG-(KVSALKE)3 (SEQ ID NO: 44) (CGGKVSALKEKVSALKEKVSALKE; also: Cys crosslinked to BSA-coated Ru(bpy) dye-doped silica nanoparticles)
- dependence of amount of EGFP-cc pulled down on amount of peptide conjugated (EGFP-cc; different amounts of CGG-(KVSALKE)3 conjugated, data not shown): proportional to the number of heptad repeat peptides conjugated to the nanoparticles
- pull-down / binding of EGFP-cc (EGFP-cc): only NP-cc can pull down EGFP-cc; also recorded: confirm the binding
- pull-down / binding of EGFP-cc (EGFP-cc; listed as functionalized nanoparticles): strong band at the position expected for EGFP-cc
- pull-down of EGFP-cc (EGFP-cc; nanoparticles conjugated with 10 μm peptide): did not result in detectable pull-down
- pull-down of EGFP-cc (EGFP-cc; nanoparticles conjugated with 100 μm peptide): presence of EGFP-cc
- binding to ion channel subunit containing the complementary target domain (TRPV3-EGFP-cc [3]; lysate of cells expressing TRPV3-EGFP-cc, anti-EGFP Western blot): confirm the binding
- pull-down of TRPV3-EGFP-cc (TRPV3-EGFP-cc [3]; nanoparticles conjugated with 10 μM peptide (lane 6)): only a small amount of pull-down
